Measurements from ChEMBL document CHEMBL3351683, “Synthesis of lantadene analogs with marked in vitro inhibition of lung adenocarcinoma and TNF-α induced nuclear factor-kappa B (NF-κB) activation” (Bioorg Med Chem Lett, 2014).
Values belong to the compound of their own block, whether it stands above or below them. Activity calls are given as the source filed them. No cut-off for these calls is given here.

Key:
[1] = tested on: A549; experiment: Cytotoxicity against human A549 cells after 48 hrs by MTT assay; type: functional, cell-based; conditions: A549, 48 h
[2] = molecular target: T1, Inhibitor of nuclear factor kappa-B kinase subunit beta (Homo sapiens, UniProt O14920); experiment: Inhibition of phosphorylation of human recombinant Flag-tagged IKKbeta expressed in Sf21 cells after 1 hr by Kinase-Glo luminescent kinase assay
T1 sequence (O14920 whole entry): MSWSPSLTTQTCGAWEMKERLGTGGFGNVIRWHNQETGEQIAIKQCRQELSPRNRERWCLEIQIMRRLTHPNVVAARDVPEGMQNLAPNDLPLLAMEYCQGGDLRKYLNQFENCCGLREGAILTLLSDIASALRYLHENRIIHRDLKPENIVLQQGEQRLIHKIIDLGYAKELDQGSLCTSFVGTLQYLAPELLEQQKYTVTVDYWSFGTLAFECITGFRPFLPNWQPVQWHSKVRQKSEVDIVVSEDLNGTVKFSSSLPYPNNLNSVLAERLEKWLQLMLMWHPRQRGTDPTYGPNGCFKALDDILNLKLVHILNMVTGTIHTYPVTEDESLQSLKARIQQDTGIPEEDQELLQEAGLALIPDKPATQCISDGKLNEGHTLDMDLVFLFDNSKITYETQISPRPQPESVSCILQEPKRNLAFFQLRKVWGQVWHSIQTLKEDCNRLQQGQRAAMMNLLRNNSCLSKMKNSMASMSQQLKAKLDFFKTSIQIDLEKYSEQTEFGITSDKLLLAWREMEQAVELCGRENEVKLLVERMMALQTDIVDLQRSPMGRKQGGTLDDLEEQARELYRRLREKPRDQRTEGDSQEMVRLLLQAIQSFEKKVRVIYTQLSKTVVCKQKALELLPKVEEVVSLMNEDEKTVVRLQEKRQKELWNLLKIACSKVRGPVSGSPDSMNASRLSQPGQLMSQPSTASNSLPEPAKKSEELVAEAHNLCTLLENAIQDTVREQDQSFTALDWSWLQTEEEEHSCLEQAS

[3] = Stability in simulated gastric fluid at pH 2 assessed as compound remaining measured at 5 mg/ml at 2 hrs by HPLC analysis; type: ADME; conditions: read-out: Stability
[4] = Stability in simulated gastric fluid at pH 2 assessed as compound remaining measured at 5 mg/ml at 5 hrs by HPLC analysis; type: ADME; conditions: read-out: Stability
[5] = Stability in simulated gastric fluid at pH 2 assessed as compound remaining measured at 5 mg/ml at 8 hrs by HPLC analysis; type: ADME; conditions: read-out: Stability
[6] = Stability in simulated gastric fluid at pH 2 assessed as compound remaining measured at 5 mg/ml at 12 hrs by HPLC analysis; type: ADME; conditions: read-out: Stability
[7] = Metabolic stability in 80% human plasma assessed as compound remaining at 5 mg/ml at 15 mins by HPLC analysis; type: ADME, cell-free; conditions: read-out: Stability
[8] = Metabolic stability in 80% human plasma assessed as compound remaining at 5 mg/ml at 30 mins by HPLC analysis; type: ADME, cell-free; conditions: read-out: Stability
[9] = Metabolic stability in 80% human plasma assessed as compound remaining at 5 mg/ml at 60 mins by HPLC analysis; type: ADME, cell-free; conditions: read-out: Stability
[10] = Metabolic stability in 80% human plasma assessed as compound remaining at 5 mg/ml at 120 mins by HPLC analysis; type: ADME, cell-free; conditions: read-out: Stability
[11] = molecular target: T2, Inhibitor of nuclear factor kappa-B kinase subunit beta (Homo sapiens) (UniProt O14920); conditions: A549, 0.5 to 1 uM
T2 sequence (whole entry): T1 sequence (O14920 whole entry)
Description: Inhibition of TNFalpha-induced IKKbeta-mediated IkappaB degradation in human A549 cells compound treated for 8 hrs at 0.5 to 1 uM followed by TNFalpha stimulation measured after 30 mins by Western blot analysis relative to control

SMILES: C/C=C(/C)C(=O)O[C@@H]1CC(C)(C)C[C@H]2C3=CC[C@@H]4[C@@]5(C)CC[C@H](OC(=O)c6ccccc6F)C(C)(C)[C@@H]5CC[C@@]4(C)[C@]3(C)CC[C@@]12C(=O)O
- IC50 [1]: 2040 nM

- IC50 [2]: 1360 nM
- remaining at 2 h, 5 mg/ml [3]: 93%
- remaining at 5 h, 5 mg/ml [4]: 88.2%
- remaining at 8 h, 5 mg/ml [5]: 83.3%
- remaining at 12 h, 5 mg/ml [6]: 77.2%
- remaining at 0.25 h, 5 mg/ml [7]: 70.4%
- remaining at 0.5 h, 5 mg/ml [8]: 53.2%
- remaining at 1 h, 5 mg/ml [9]: 46.7%
- remaining at 2 h, 5 mg/ml [10]: 35.3%
- inhibition [11]: Active
SMILES: COc1cccc(C(=O)O[C@H]2CC[C@]3(C)[C@H]4CC=C5[C@@H]6CC(C)(C)C[C@@H](OC(=O)C=C(C)C)[C@]6(C(=O)O)CC[C@@]5(C)[C@]4(C)CC[C@H]3C2(C)C)c1
- IC50 [1]: 980 nM

SMILES: C/C=C(/C)C(=O)O[C@@H]1CC(C)(C)C[C@H]2C3=CC[C@@H]4[C@@]5(C)CCC(=O)C(C)(C)[C@@H]5CC[C@@]4(C)[C@]3(C)CC[C@@]12C(=O)O [LANTADENE A]
- IC50 [1]: 2840 nM

SMILES: C/C=C(/C)C(=O)O[C@@H]1CC(C)(C)C[C@H]2C3=CC[C@@H]4[C@@]5(C)CC[C@H](OC(=O)C(C)C)C(C)(C)[C@@H]5CC[C@@]4(C)[C@]3(C)CC[C@@]12C(=O)O
- IC50 [1]: > 10000 nM

SMILES: CC(C)=CC(=O)O[C@@H]1CC(C)(C)C[C@H]2C3=CC[C@@H]4[C@@]5(C)CC[C@H](OC(=O)c6ccccc6F)C(C)(C)[C@@H]5CC[C@@]4(C)[C@]3(C)CC[C@@]12C(=O)O
- IC50 [1]: 1960 nM

SMILES: CC(C)=CC(=O)O[C@@H]1CC(C)(C)C[C@H]2C3=CC[C@@H]4[C@@]5(C)CC[C@H](O)C(C)(C)[C@@H]5CC[C@@]4(C)[C@]3(C)CC[C@@]12C(=O)O [Reduced Lantadene B]
- IC50 ([2]; sf21): 4240 nM
- IC50 [1]: 430 nM

SMILES: CC(C)=CC(=O)O[C@@H]1CC(C)(C)C[C@H]2C3=CC[C@@H]4[C@@]5(C)CC[C@H](OC(=O)C(C)C)C(C)(C)[C@@H]5CC[C@@]4(C)[C@]3(C)CC[C@@]12C(=O)O
- IC50 [1]: 2560 nM

SMILES: CC(C)=CC(=O)O[C@@H]1CC(C)(C)C[C@H]2C3=CC[C@@H]4[C@@]5(C)CCC(=O)C(C)(C)[C@@H]5CC[C@@]4(C)[C@]3(C)CC[C@@]12C(=O)O
- IC50 [1]: 1190 nM

SMILES: CC(C)=CC(=O)O[C@@H]1CC(C)(C)C[C@H]2C3=CC[C@@H]4[C@@]5(C)CC[C@H](OC(=O)c6cccc(F)c6)C(C)(C)[C@@H]5CC[C@@]4(C)[C@]3(C)CC[C@@]12C(=O)O
- IC50 [1]: 6860 nM

SMILES: C/C=C(/C)C(=O)O[C@@H]1CC(C)(C)C[C@H]2C3=CC[C@@H]4[C@@]5(C)CC[C@H](OC(=O)CCC)C(C)(C)[C@@H]5CC[C@@]4(C)[C@]3(C)CC[C@@]12C(=O)O
- IC50 [1]: > 10000 nM

SMILES: CC(C)C(=O)O[C@@H]1CC(C)(C)C[C@H]2C3=CC[C@@H]4[C@@]5(C)CCC(=O)C(C)(C)[C@@H]5CC[C@@]4(C)[C@]3(C)CC[C@@]12C(=O)O
- IC50 [1]: > 10000 nM

SMILES: CCCC(=O)O[C@H]1CC[C@]2(C)[C@H]3CC=C4[C@@H]5CC(C)(C)C[C@@H](OC(=O)C=C(C)C)[C@]5(C(=O)O)CC[C@@]4(C)[C@]3(C)CC[C@H]2C1(C)C
- IC50 [1]: > 10000 nM

SMILES: C/C=C(/C)C(=O)O[C@@H]1CC(C)(C)C[C@H]2C3=CC[C@@H]4[C@@]5(C)CC[C@H](OC(=O)c6cccc(OC)c6)C(C)(C)[C@@H]5CC[C@@]4(C)[C@]3(C)CC[C@@]12C(=O)O
- IC50 [1]: 1840 nM

SMILES: C/C=C(/C)C(=O)O[C@@H]1CC(C)(C)C[C@H]2C3=CC[C@@H]4[C@@]5(C)CC[C@H](OC(=O)c6cccc(F)c6)C(C)(C)[C@@H]5CC[C@@]4(C)[C@]3(C)CC[C@@]12C(=O)O
- IC50 [1]: > 10000 nM

SMILES: CCCC(=O)O[C@@H]1CC(C)(C)C[C@H]2C3=CC[C@@H]4[C@@]5(C)CCC(=O)C(C)(C)[C@@H]5CC[C@@]4(C)[C@]3(C)CC[C@@]12C(=O)O
- IC50 [1]: > 10000 nM

SMILES: CC1(C)C[C@@H](O)[C@]2(C(=O)O)CC[C@]3(C)C(=CC[C@@H]4[C@@]5(C)CCC(=O)C(C)(C)[C@@H]5CC[C@]43C)[C@@H]2C1
- IC50 [1]: > 10000 nM

SMILES: C/C=C(/C)C(=O)O[C@@H]1CC(C)(C)C[C@H]2C3=CC[C@@H]4[C@@]5(C)CC[C@H](O)C(C)(C)[C@@H]5CC[C@@]4(C)[C@]3(C)CC[C@@]12C(=O)O [Reduced Lantadene A]
- IC50 [2]: 2620 nM
- IC50 [1]: 790 nM

SMILES: C/C=C(/C)C(=O)O[C@@H]1CC(C)(C)C[C@H]2C3=CC[C@@H]4[C@@]5(C)CC[C@H](OC(=O)c6ccc(Cl)cc6)C(C)(C)[C@@H]5CC[C@@]4(C)[C@]3(C)CC[C@@]12C(=O)O
- IC50 [1]: 1320 nM

- IC50 [2]: 1540 nM
- remaining at 2 h, 5 mg/ml [3]: 92.2%
- remaining at 5 h, 5 mg/ml [4]: 86.5%
- remaining at 8 h, 5 mg/ml [5]: 80.3%
- remaining at 12 h, 5 mg/ml [6]: 72.8%
- remaining at 0.25 h, 5 mg/ml [7]: 70.2%
- remaining at 0.5 h, 5 mg/ml [8]: 52.2%
- remaining at 1 h, 5 mg/ml [9]: 44.3%
- remaining at 2 h, 5 mg/ml [10]: 32.3%
SMILES: CC(C)=CC(=O)O[C@@H]1CC(C)(C)C[C@H]2C3=CC[C@@H]4[C@@]5(C)CC[C@H](OC(=O)c6ccc(Cl)cc6)C(C)(C)[C@@H]5CC[C@@]4(C)[C@]3(C)CC[C@@]12C(=O)O
- IC50 [1]: 1120 nM
